In US7626044B2, “Triptolide derivatives and their uses” (priority 2002, dated 2009):

Legend:
[1] = tested on: anti-SRBC specific antibodies production by B lymphocytes; assay type: in vivo, mouse; conditions: Table 12, positive control given i.p., ICR mice, dosage 4 mg/kg
[2] = tested on: DNFB-induced mouse DTH response; assay: DNFB-induced mouse delayed type hypersensitivity response (DTH); assay type: in vivo; conditions: Table 8, i.p., Balb/c mice, dosage 1000 (mg/kg)
Method: Female Balb/c mice (age of 6-8 wk) were randomly divided into groups and immunized with 20 μl 0.5% DNFB solution in absolute acetone-olive oil (4:1) on each hind foot on day 0 and 1;
7-9 days after the initial immunization, mice were boosted with 10 μl 0.4% DNFB on both sides of the left ear, whereas the right ear was treated with vehicle alone;
Compounds were administered intraperitoneally (i.p.) or orally (p.o.) to the mice 1 h before DNFB booster immunization and 12 h later.
Ear swelling and other indexes were assessed 24-48 h after booster immunization.
Note: Female ICR mice (age of 6-8 wk) were immunized with 0.7% DNFB solution and boosted with 0.6% DNFB solution.

T lymphocyte = assay: ConA induced T-lymphocyte proliferation ([3H]thymidine); assay type: cell-based, mouse; conditions: control 125789
Method: (§1) Mice were sacrificed by cervical dislocation, and spleens were collected under sterile conditions then teased through a nylon mesh. Erythrocytes were lysed. Cells were washed and resuspended at 5×10^6/ml in RPMI-1640 media containing 10% FBS. For one 96 well plate assay, 100 pt of cells, 50 μl of sample and 50 μl of ConA/LPS were added into each well with the final volume 200 μl. The control wells were set up with 50 μl of RPMI-1640 media instead of ConA/LPS.
(§2) Plates were incubated for 48 h (ConA) or 60 h (LPS), respectively, at 37° C., 5% CO2 in a humidified incubator. In the last 8 h of incubation, 25 μl (1.9×10^10 Bq) of [^3H]thymidine was added. After plates were incubated for 48 h, the plates (ConA) were stored at −20° C., then after another 12 h, the plates (LPS) were stored at −20° C.
(§3) At the end of incubation, pulsed cells were harvested on a glass filter using a cell harvester ([…]96®, TOMTEC) and allowed to dry. Incorporation of radioactive thymidine was determined by using liquid Scintillation and Luminescence Counters (MicroBeta Trilux®, PerkinElmer).

lymphocyte = assay: MTT cytotoxic assay; assay type: cell-based, mouse; conditions: control 0.337
Method: Mice were sacrificed by cervical dislocation, and spleens were collected under sterile conditions then teased through a nylon mesh. Erythrocytes were lysed. Cells were washed and resuspended at 5×10^6/ml in RPMI-1640 media supplemented with 10% FBS.
For one 96 well plate assay, 90 μl of cells, 45 μl of sample and 45 μl of RPMI-1640 media with 10% FBS were added into each well with the final volume 180 μl. The negative control wells (containing 90 μl of RPMI-1640 media with 10% FBS and 90 pt of cells), blank control (180 μl of RPMI-1640 media with 10% FBS) were also performed. Incubate plate for 48 hours at 37° C., 5% CO2 in a humidified incubator. 18 μl of MTT solution (5 mg/ml) was added for 6-7 h.
90 μl of MTT lysis solution was added to each well followed by a further incubation at 37° C. for 6-7 h. And the absorbance was measured at 570 nm using a plate reader.

B lymphocyte = assay: LPS induced B-lymphocyte proliferation ([3H]thymidine); assay type: cell-based, mouse; conditions: control 87373
Method: as §1, §2, §3

SMILES | Lymphocyte Proliferation (cpm) T cell (T lymphocyte; 10^−6 M) [cpm] | Lymphocyte Proliferation (cpm) T cell (T lymphocyte; 10^−7 M) [cpm] | Lymphocyte Proliferation (cpm) T cell (T lymphocyte; 10^−8 M) [cpm] | Cytotoxicity OD Value (lymphocyte; 10^−6 M) | Cytotoxicity OD Value (lymphocyte; 10^−7 M) | Cytotoxicity OD Value (lymphocyte; 10^−8 M) | Lymphocyte Proliferation (cpm) B cell (B lymphocyte; 10^−6 M) [cpm] | Lymphocyte Proliferation (cpm) B cell (B lymphocyte; 10^−7 M) [cpm] | Lymphocyte Proliferation (cpm) B cell (B lymphocyte; 10^−8 M) [cpm] | melting point | further results
O=P1(N(CCCl)CCCl)NCCCO1 (stereo not drawn) [CTX, reference compound] | – | – | – | – | – | – | – | – | – | – | QHS OD value ([1]; control 0.38): 0.12; C3 ([1]; control 7.9): 7.5 μg/10 μl; Body weight ([1]; control 23.4): 22.6 g; Thymus ([1]; control 28.8): 28.2 mg; Spleen ([1]; control 55.7): 50.7 mg/10 g; Total IgG ([1]; control 117): 101 μg/10 μl; Body weight after i.p. ([2]; control 21.9): 21.1 g; Body weight before i.p. ([2]; control 22.4): 22.1 g; Ear swelling X ± SD ([2]; control 22.7 ± 2.1): 15.6 ± 8.1 mg; Right ear ([2]; control 26.4): 30.3 mg; Left ear ([2]; control 49.1): 45.9 mg; Spleen ([2]; control 154.0): 141.2 mg
CC(C)[C@]12O[C@H]1[C@@H]1O[C@@]13[C@@]1(C)CCC4=C(COC4=O)C1=C[C@@H]1O[C@@]13C2=O [LLDT-15, Δ^5,6-dehydrotriptonide] | 10296 | 63914 | 69613 | 0.156 | 0.316 | 0.327 | 30889 | 85240 | 77139 | 242 to 244 °C (dec.) | –
CC(C)[C@]12O[C@H]1[C@@H]1O[C@@]13[C@@]1(C)CCC4=C(COC4=O)[C@@]14O[C@H]4[C@@H]1O[C@@]13C2=O [LLDT-16, (5R, 6S)-5,6-epoxytriptonide] | 76204 | 75599 | 89029 | 0.304 | 0.337 | 0.372 | 80768 | 82285 | 71877 | 252 to 254 °C (dec.) | –
CC(C)[C@]12O[C@H]1[C@@H]1O[C@@]13[C@@]1(C)CCC4=C(COC4=O)[C@]1(O)[C@@H](O)[C@@H]1O[C@@]13C2=O [LLDT-17, cis-(5R, 6S)-5,6-dihydroxytriptonide] | 84825 | 67561 | 74069 | 0.310 | 0.355 | 0.334 | 82861 | 76376 | 73969 | 266 to 268 °C (dec.) | –
CC(C)C12OC1C1OC13C1(C)CCC4=C(COC4=O)C1=CC1OC13C2O (stereo not drawn) [LLDT-18, Δ^5,6-dehydrotriptolide] | 462 | 53513 | 92807 | 0.039 | 0.295 | 0.367 | 833 | 75147 | 79808 | – | –
CC(C)[C@]12O[C@H]1[C@@H]1O[C@]13[C@]1(O[C@H]1C=C1C4=C(CC[C@@]13C)C(=O)OC4)[C@H]2O [LLDT-19, Δ^5,6-dehydro-14-epitriptolide] | 79418 | 71177 | 76183 | 0.340 | 0.340 | 0.346 | 82989 | 70587 | 69690 | – | –
CC(C)C12OC1C1OC13C1(OC1C1OC14C1=C(CCC43C)C(=O)OC1)C2O [LLDT-20, (5R, 6S)-5,6-epoxytriptolide] | 25344 | 54771 | 69785 | 0.263 | 0.350 | 0.374 | 63169 | 85145 | 78259 | – | –
CC(C)[C@]12O[C@H]1[C@@H]1O[C@]13[C@]1(O[C@H]1[C@@H]1O[C@@]14C1=C(CC[C@]34C)C(=O)OC1)[C@H]2O [LLDT-21, (5R, 6S)-5,6-epoxy-14-epitriptolide] | 97217 | 73513 | 83465 | 0.361 | 0.332 | 0.359 | 86610 | 75766 | 76181 | – | –
CC(C)C12OC1C1OC13C1(OC1C(O)C1(O)C4=C(CCC13C)C(=O)OC4)C2O [LLDT-22, cis-(5R, 6S)-5,6-dihydroxytriptolide] | 2662 | 68787 | 64367 | 0.157 | 0.345 | 0.374 | 16807 | 89706 | 84748 | – | –
CC(C)C12OC1C1OC13C1(OC1C(O)C1(O)C4=C(CCC13C)C(=O)OC4)C2O [LLDT-23, cis-(5R, 6S)-5,6-dihydroxy-14-epitriptolide] | 55614 | 104791 | 84713 | 0.302 | 0.349 | 0.366 | 99672 | 86481 | 76993 | – | –
